Measurements as given in US5434154A, “Antimigraine 4-pyrimidinyl and pyridinyl derivatives of indol-3yl-alkylpiperazines” (Bristol-Myers Squibb Company, priority 1994, dated 1995).
Structures can show the parent of a compound that is named as a salt.

Tests used:
5-HT1D = target: T1, 5-HT1D (Bos taurus, UniProt F1MGM3); assay: 5-HT1D binding (displacement of tritiated serotonin); conditions: in vitro, Table 2
T1 construct: methodology such as that described by Heuring and Peroutka, J. Neurosci., 7(3), 1987, 894-903; with only minor modifications; from tissue
T1 sequence (F1MGM3 1-403): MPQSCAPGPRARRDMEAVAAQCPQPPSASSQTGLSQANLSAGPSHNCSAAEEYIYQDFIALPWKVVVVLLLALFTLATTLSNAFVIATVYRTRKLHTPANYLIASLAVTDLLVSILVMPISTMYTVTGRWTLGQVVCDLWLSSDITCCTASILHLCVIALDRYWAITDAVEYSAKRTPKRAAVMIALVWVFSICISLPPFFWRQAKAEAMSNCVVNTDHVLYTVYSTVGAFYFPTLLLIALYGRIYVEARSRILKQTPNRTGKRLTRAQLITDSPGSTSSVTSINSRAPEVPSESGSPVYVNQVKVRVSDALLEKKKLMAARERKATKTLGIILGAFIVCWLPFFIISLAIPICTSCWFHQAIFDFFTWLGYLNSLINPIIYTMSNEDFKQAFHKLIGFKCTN
Experimental: Determination of 5-HT1D binding properties was accomplished employing methodology such as that described by Heuring and Peroutka, J. Neurosci., 7(3), 1987, 894-903; with only minor modifications. In vitro IC50 (nM) test values were determined for the compounds of this invention employing tritiated serotonin.

migraine sufferers = conditions: cited from earlier work
migraine = conditions: cited from earlier work

Row | Structure (SMILES) | IC50 (5-HT1D) [nM] | further results
1 | COc1cncnc1N1CCN(CCCc2c[nH]c3ccc(N(C)S(C)(=O)=O)cc23)CC1C (centres unmarked) [Example 70] | 11 | 
2 | COc1cncnc1N1CCN(CCCc2c[nH]c3ccc(NS(C)(=O)=O)cc23)CC1C (centres unmarked) [Example 68] | 9.6 | 
3 | NCCc1c[nH]c2ccc(O)cc12 [serotonin creatinine sulfate] |  | alleviation of reserpine-induced headache (migraine sufferers; slow I.V. injection): This induced headache can be alleviated
4 | COC(=O)[C@H]1[C@H]2C[C@@H]3c4[nH]c5cc(OC)ccc5c4CCN3C[C@H]2C[C@@H](OC(=O)c2cc(OC)c(OC)c(OC)c2)[C@@H]1OC [reserpine] |  | induction of headache in migraine sufferers (migraine sufferers; in vivo): induces a typical migraine-type headache in migraine sufferers; plasma serotonin (migraine sufferers; intramuscular injection): lowers plasma serotonin
5 | COc1cncnc1N1CCN(CCCc2c[nH]c3ccc(F)cc23)CC1 [Example 64] | 1.5 | 
6 | COc1cnccc1N1CCN(CCCc2c[nH]c3ccccc23)CC1 [Example 62, 1-[3-(1H-indol-3-yl)propyl]-4-(3-methoxy-4-pyridinyl)piperazine dihydrochloride] | 10 | 
7 | CC[C@@H](CO)NC(=O)[C@@H]1C=C2c3cccc4c3c(cn4C)C[C@H]2N(C)C1 [methysergide] |  | side-effects (migraine; long term usage): severe use-limiting side-effects with long term usage
8 | NCCc1c[nH]c2ccc(O)cc12 [serotonin] |  | effect in treating migraine attacks (migraine sufferers; in vivo): effective in treating migraine attacks; side-effects in migraine use (migraine sufferers; in vivo): restlessness, nausea, faintness, hyperpnea, facial flushing and parasthesias
9 | CN1C[C@H](C(=O)N[C@]2(C)O[C@@]3(O)[C@@H]4CCCN4C(=O)[C@H](Cc4ccccc4)N3C2=O)C=C2c3cccc4[nH]cc(c34)C[C@H]21 [ergotamine] |  | dependence (migraine; extended use): cause dependence with extended use
10 | COc1cncnc1N1CCN(CCCc2c[nH]c3ccc(CC(=O)NCc4ccccc4)cc23)CC1 [Example 84] | 4.6 | 
11 | CNS(=O)(=O)Cc1ccc2[nH]cc(CCCN3CCN(c4ccncc4OC)CC3)c2c1 [Example 61, 4-(5-Methoxy-4-pyridinyl)-1-[3-[5-[[(methylamino)sulfonyl]methyl]-1H-indol-3-yl]propyl]piperazine hydrochloride] | 1 | 
12 | COc1cncnc1N1CCN(CCCc2c[nH]c3ccc(CS(N)(=O)=O)cc23)CC1 [Example 81] | 7.9 | 
